Measured values published in the supplement of paper PMC10307832.

How the values were obtained:
Test in all cases: relative viability (nuclei count vs DMSO), 5 days (fraction); higher = more cells survive
[1] = compound: Cc1ccccc1C(C(=O)NC1CCCCC1)N(C(=O)Cn1ccnc1C)c1cccc(F)c1 [IDH-C35] + C[C@@H](Oc1cc(-c2cnn(C3CCNCC3)c2)cnc1N)c1c(Cl)ccc(F)c1Cl [Crizotinib] (partner 1 µM)
Outline: (§1)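 Lung cancer cell lines, seeded in 1536-well plates, were treated the following day by pin tool with a single drug or with five library-drug doses (not always all listed) in √10 steps on top of a fixed anchor-drug dose. Cells were fixed and nuclei stained in one step after 5 days, and nuclei were counted. Relative viability is the nuclei count for treated wells divided by that for vehicle wells, reported as medians of duplicate plates.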

[2] = compound: CC1=C(C(=NN1)C)CC2=C(C3=C(S2)N(C(=O)N(C3=O)C)CC(C)C)C(=O)N4C[C@@H](CO4)O + CC(C)C[C@H](NC(=O)[C@H](Cc1ccccc1)NC(=O)c1cnccn1)B(O)O [Bortezomib] (partner 0.002 µM)
Outline: as §1

[3] = compound: CC1=C(C(=NN1)C)CC2=C(C3=C(S2)N(C(=O)N(C3=O)C)CC(C)C)C(=O)N4C[C@@H](CO4)O + CCNC(=O)c1noc(-c2cc(C(C)C)c(O)cc2O)c1-c1ccc(CN2CCOCC2)cc1 [Luminespib] (partner 0.01 µM)
Outline: as §1

[4] = compound: CC1=C(C(=NN1)C)CC2=C(C3=C(S2)N(C(=O)N(C3=O)C)CC(C)C)C(=O)N4C[C@@H](CO4)O + O=C(c1cc(Cc2n[nH]c(=O)c3ccccc23)ccc1F)N1CCN(C(=O)C2CC2)CC1 [Olaparib] (partner 8 µM)
Outline: as §1

UMC-11
relative viability ([1]; first compound 0.08 µM): 0.578
relative viability ([1]; first compound 0.253 µM): 0.56
relative viability ([1]; first compound 0.8 µM): 0.481
relative viability ([1]; first compound 2.53 µM): 0.576
relative viability ([1]; first compound 8 µM): 0.629
relative viability ([2]; first compound 0.0025 µM): 0.667
relative viability ([2]; first compound 0.007906 µM): 0.189
relative viability ([2]; first compound 0.025 µM): 0.173
relative viability ([2]; first compound 0.07906 µM): 0.22
relative viability ([2]; first compound 0.25 µM): 0.32
relative viability ([3]; first compound 0.0025 µM): 1.06
relative viability ([3]; first compound 0.007906 µM): 1.33
relative viability ([3]; first compound 0.025 µM): 0.959
relative viability ([3]; first compound 0.07906 µM): 1.08
relative viability ([3]; first compound 0.25 µM): 1.13
relative viability ([4]; first compound 0.0025 µM): 0.386
relative viability ([4]; first compound 0.007906 µM): 0.358
relative viability ([4]; first compound 0.025 µM): 0.383
relative viability ([4]; first compound 0.07906 µM): 0.456
relative viability ([4]; first compound 0.25 µM): 0.957
